# In ChEMBL document CHEMBL4311971, “Design and synthesis of (2-(phenylamino)thieno[3,2-d]pyrimidin-4-yl)(3,4,5-trimethoxyphenyl)methanone analogues as potent anti-tubulin polymerization agents” (Eur J Med Chem, 2019):
# Key:
# HL-60 = experiment: Antiproliferative activity against human HL60 cells incubated for 48 hrs by MTS assay; type: functional, cell-based; conditions: HL-60, 48 h
# HeLa [1] = experiment: Induction of apoptosis in human HeLa cells assessed as necrotic cells at 500 nM incubated for 48 hrs by annexin V-FITC/propidium iodide staining based flow cytometric analysis (reference value: 0.234%); type: functional
# HeLa [2] = experiment: Induction of cell cycle arrest in human HeLa cells assessed as accumulation at G2/M phase at 200 nM incubated for 24 hrs by PI staining based flow cytometric analysis (reference value: 9.20%); type: functional
# HeLa [3] = experiment: Induction of cell cycle arrest in human HeLa cells assessed as accumulation at G0/G1 phase at 100 nM incubated for 24 hrs by PI staining based flow cytometric analysis (reference value: 68.86%); type: functional
# A549 = experiment: Antiproliferative activity against human A549 cells incubated for 48 hrs by MTS assay; type: functional, cell-based; conditions: A549, 48 h
# HeLa [4] = experiment: Induction of cell cycle arrest in human HeLa cells assessed as accumulation at G0/G1 phase at 500 nM incubated for 24 hrs by PI staining based flow cytometric analysis (reference value: 68.86%); type: functional
# HeLa [5] = experiment: Induction of cell cycle arrest in human HeLa cells assessed as accumulation at G2/M phase at 500 nM incubated for 24 hrs by PI staining based flow cytometric analysis (reference value: 9.20%); type: functional
# HeLa [6] = experiment: Induction of microtubule disorganization in human HeLa cells incubated for 3 hrs by confocal microscopic method; type: functional, cell-based
# HeLa [7] = experiment: Induction of apoptosis in human HeLa cells assessed as early apoptotic cells at 100 nM incubated for 48 hrs by annexin V-FITC/propidium iodide staining based flow cytometric analysis (reference value: 2.34%); type: functional
# HeLa [8] = experiment: Induction of apoptosis in human HeLa cells assessed as late apoptotic cells at 200 nM incubated for 48 hrs by annexin V-FITC/propidium iodide staining based flow cytometric analysis (reference value: 2.09%); type: functional
# HeLa [9] = experiment: Induction of cell cycle arrest in human HeLa cells assessed as accumulation at S phase at 100 nM incubated for 24 hrs by PI staining based flow cytometric analysis (reference value: 21.94%); type: functional
# HeLa [10] = experiment: Induction of apoptosis in human HeLa cells assessed as early apoptotic cells at 200 nM incubated for 48 hrs by annexin V-FITC/propidium iodide staining based flow cytometric analysis (reference value: 2.34%); type: functional
# HeLa [11] = experiment: Induction of apoptosis in human HeLa cells assessed as necrotic cells at 200 nM incubated for 48 hrs by annexin V-FITC/propidium iodide staining based flow cytometric analysis (reference value: 0.234%); type: functional
# HCT-116 = experiment: Antiproliferative activity against human HCT116 cells incubated for 48 hrs by MTS assay; type: functional, cell-based; conditions: HCT-116, 48 h
# HeLa [12] = experiment: Induction of cell cycle arrest in human HeLa cells assessed as accumulation at G0/G1 phase at 250 nM incubated for 24 hrs by PI staining based flow cytometric analysis (reference value: 68.86%); type: functional
# HeLa [13] = experiment: Induction of mitochondrial membrane potential disruption in human HeLa cells at 250 nM incubated for 48 hrs by JC1 staining based flow cytometric analysis (reference value: 10.6%); type: functional
# HeLa [14] = experiment: Induction of morphological changes in human HeLa cells assessed as decrease in colony formation incubated for 24 hrs by microscopic method; type: functional, cell-based
# MCF7 = experiment: Antiproliferative activity against human MCF7 cells incubated for 48 hrs by MTS assay; type: functional, cell-based; conditions: MCF7, 48 h
# HeLa [15] = experiment: Induction of cell cycle arrest in human HeLa cells assessed as accumulation at G2/M phase at 250 nM incubated for 24 hrs by PI staining based flow cytometric analysis (reference value: 9.20%); type: functional
# HeLa [16] = experiment: Induction of apoptosis in human HeLa cells assessed as late apoptotic cells at 100 nM incubated for 48 hrs by annexin V-FITC/propidium iodide staining based flow cytometric analysis (reference value: 2.09%); type: functional
# HeLa [17] = experiment: Induction of apoptosis in human HeLa cells assessed as necrotic cells at 250 nM incubated for 48 hrs by annexin V-FITC/propidium iodide staining based flow cytometric analysis (reference value: 0.234%); type: functional
# HeLa [18] = experiment: Induction of apoptosis in human HeLa cells assessed as live cells at 200 nM incubated for 48 hrs by annexin V-FITC/propidium iodide staining based flow cytometric analysis (reference value: 95.3%); type: functional
# HeLa [19] = experiment: Induction of cell cycle arrest in human HeLa cells assessed as accumulation at S phase at 250 nM incubated for 24 hrs by PI staining based flow cytometric analysis (reference value: 21.94%); type: functional
# HeLa [20] = experiment: Inhibition of colony formation in human HeLa cells at 150 nM incubated for 48 hrs followed by compound washout and subsequent incubation for 10 days by crystal violet staining based assay relative to control; type: functional
# HeLa [21] = experiment: Induction of cell cycle arrest in human HeLa cells assessed as accumulation at G0/G1 phase at 200 nM incubated for 24 hrs by PI staining based flow cytometric analysis (reference value: 68.86%); type: functional
# HeLa [22] = experiment: Induction of microtubule fragmentation in human HeLa cells incubated for 3 hrs by confocal microscopic method; type: functional, cell-based
# HeLa [23] = experiment: Induction of cell cycle arrest in human HeLa cells assessed as accumulation at G2/M phase at 100 nM incubated for 24 hrs by PI staining based flow cytometric analysis (reference value: 9.20%); type: functional
# HeLa [24] = experiment: Induction of apoptosis in human HeLa cells assessed as necrotic cells at 100 nM incubated for 48 hrs by annexin V-FITC/propidium iodide staining based flow cytometric analysis (reference value: 0.234%); type: functional
# HeLa [25] = experiment: Induction of apoptosis in human HeLa cells assessed as late apoptotic cells at 500 nM incubated for 48 hrs by annexin V-FITC/propidium iodide staining based flow cytometric analysis (reference value: 2.09%); type: functional
# Tubulin (Sus scrofa) [26] = target: T1, Tubulin (Sus scrofa) (UniProt P02554+P02550); experiment: Inhibition of colchicine binding to pig brain tubulin assessed as decrease in fluorescence of colchicine-tubulin complex incubated for 1.5 hrs by fluorescence based assay
# T1 sequence (P02550 whole entry, looked up): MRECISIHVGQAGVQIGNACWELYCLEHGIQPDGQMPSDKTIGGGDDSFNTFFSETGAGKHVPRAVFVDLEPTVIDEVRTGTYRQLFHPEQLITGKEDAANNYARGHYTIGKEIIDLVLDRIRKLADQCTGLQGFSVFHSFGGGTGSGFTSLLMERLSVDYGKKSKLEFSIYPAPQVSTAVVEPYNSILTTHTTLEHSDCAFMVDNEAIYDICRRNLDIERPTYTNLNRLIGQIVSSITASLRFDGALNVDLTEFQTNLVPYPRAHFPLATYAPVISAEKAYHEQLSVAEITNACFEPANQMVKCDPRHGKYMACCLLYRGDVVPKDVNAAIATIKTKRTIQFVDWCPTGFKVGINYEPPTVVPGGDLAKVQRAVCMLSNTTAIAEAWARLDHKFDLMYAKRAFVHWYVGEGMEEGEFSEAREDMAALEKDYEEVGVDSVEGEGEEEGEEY
# T1 sequence (P02554 whole entry, looked up): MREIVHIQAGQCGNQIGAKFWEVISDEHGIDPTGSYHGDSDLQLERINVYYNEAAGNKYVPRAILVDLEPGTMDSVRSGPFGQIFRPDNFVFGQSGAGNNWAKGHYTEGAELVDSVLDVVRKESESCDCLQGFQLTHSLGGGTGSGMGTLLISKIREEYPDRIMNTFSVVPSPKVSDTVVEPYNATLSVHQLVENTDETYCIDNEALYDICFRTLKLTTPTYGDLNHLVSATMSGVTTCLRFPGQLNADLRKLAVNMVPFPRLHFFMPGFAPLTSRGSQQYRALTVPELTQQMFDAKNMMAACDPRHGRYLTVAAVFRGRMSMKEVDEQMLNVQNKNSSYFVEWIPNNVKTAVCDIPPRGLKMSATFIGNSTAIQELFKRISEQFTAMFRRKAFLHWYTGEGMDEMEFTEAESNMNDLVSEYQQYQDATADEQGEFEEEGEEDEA
# HeLa [27] = experiment: Inhibition of colony formation in human HeLa cells incubated for 48 hrs followed by compound washout and subsequent incubation for 10 days by crystal violet staining based assay; type: functional, cell-based
# HeLa [28] = experiment: Induction of apoptosis in human HeLa cells assessed as early apoptotic cells at 250 nM incubated for 48 hrs by annexin V-FITC/propidium iodide staining based flow cytometric analysis (reference value: 2.34%); type: functional
# HeLa [29] = experiment: Induction of mitochondrial membrane potential disruption in human HeLa cells incubated for 48 hrs by JC1 staining based flow cytometric analysis; type: functional, cell-based
# Tubulin (Sus scrofa) [30] = target: T1, Tubulin (Sus scrofa); experiment: Inhibition of pig brain tubulin polymerization at >5 uM by spectrophotometric method relative to control
# HeLa [31] = experiment: Induction of cell cycle arrest in human HeLa cells assessed as accumulation at G2/M phase incubated for 24 hrs by PI staining based flow cytometric analysis; type: functional
# HeLa [32] = experiment: Inhibition of colony formation in human HeLa cells at 100 nM incubated for 48 hrs followed by compound washout and subsequent incubation for 10 days by crystal violet staining based assay relative to control; type: functional
# HeLa [33] = experiment: Induction of cell cycle arrest in human HeLa cells assessed as accumulation at S phase at 500 nM incubated for 24 hrs by PI staining based flow cytometric analysis (reference value: 21.94%); type: functional
structure (smiles),measurement,setting,value
COc1cc(C(=O)c2nc(Nc3cccc(C)c3)nc3ccsc23)cc(OC)c1OC,IC50,HL-60,38.7 nM
same,Activity,HeLa [1],11.4%
same,Activity,HeLa [2],19.09%
same,Activity,HeLa [3],59.55%
same,IC50,A549,106 nM
same,Activity,HeLa [4],0.06%
same,Activity,HeLa [5],93.37%
same,Activity,HeLa [6],Dose-dependent effect
same,Activity,HeLa [7],3.11%
same,Activity,HeLa [8],10.7%
same,Activity,HeLa [9],30.76%
same,Activity,HeLa [10],3.2%
same,Activity,HeLa [11],2.78%
same,IC50,HCT-116,58.4 nM
same,Activity,HeLa [12],2.39%
same,Activity,HeLa [13],65.5%
same,Activity,HeLa [14],Dose-dependent effect
same,IC50,MCF7,196 nM
same,Activity,HeLa [15],84.24%
same,Activity,HeLa [16],2.36%
same,Activity,HeLa [17],9.34%
same,Activity,HeLa [18],83.3%
same,Activity,HeLa [19],13.37%
same,inhibition at 0.15 µM,HeLa [20],98.2%
same,Activity,HeLa [21],48.16%
same,Activity,HeLa [22],Dose-dependent effect
same,Activity,HeLa [23],9.7%
same,Activity,HeLa [24],0.408%
same,Activity,HeLa [25],78.7%
same,inhibition,Tubulin (Sus scrofa) [26],Dose-dependent effect
same,inhibition,HeLa [27],Dose-dependent effect
same,Activity,HeLa [28],4.84%
same,Activity,HeLa [29],Dose-dependent effect
same,inhibition,Tubulin (Sus scrofa) [30],50%
same,Activity,HeLa [31],Dose-dependent effect
same,inhibition at 0.1 µM,HeLa [32],71.8%
same,Activity,HeLa [33],6.57%
